The text below walks through data of patent US20260028348A1, “MODULATORS OF TNF-ALPHA ACTIVITY” (Forward Therapeutics, Inc., priority 2023, published 2026).

The structures appear in SMILES notation. pIC50: −log10 of the molar value.

This experiment deals with HEK Blue™ TNFα reporter cells. Description: TNF-α Induced HEK Blue Cellular Assay. The note with it: TNF-α stimulated HEK Blue TNFα reporter cells, 24 hrs, secreted alkaline phosphatase (QUANTI-Blue, 620 nm). Type of experiment: cell-based. The procedure: Test articles were diluted in DMSO and serially diluted into 384 well assay plate (Corning 3765), at final concentrations ranging from […] to 0.5 nM. HEK Blue™ TNFα reporter cells were added at a final density of 10,000 cell per well in assay media [DMEM (Gibco, cat #21063-029), 10% fetal bovine serum (ExcelBio, cat #FND500), 1% Penicillin-Streptomycin (Solarbio, cat #P1400-100]. TNF-α (R&D 210-TA-020/CF) was then added to the assay plate at a final concentration of […]. This plate was then incubated for 24 hrs at 37° C. and 5% CO2. Secreted alkaline phosphatase expression was then measured using QUANTI-Blue™(Invivogen), according to manufacturer instructions and read on an Envision microplate reader at 620 nm.
Inhibition data for test compound over a range of concentration was plotted as percentage inhibition of the test compound (100%=maximum inhibition). IC50 values were determined after correcting for background [(sample read-mean of low control)/(mean of high control-mean of low control)] whereby the low control is DMSO without stimulation and high control is DMSO with stimulation. The IC50 is defined as the concentration of test compound which produces […] and was quantified using the 4 parameter logistic equation to fit the data.
`[2H]C([2H])([2H])N1C(=O)c2cccc(OC(F)F)c2[C@H]2C[C@@H]1c1nc3ccc(-c4cnc5c(c4)COC[C@@]5(C)O)cc3n12` (single isomer, unassigned) [Example 39] gave a pIC50 of 4.52 to 5.00.
Take `[2H]C([2H])([2H])N1C(=O)c2cccc(OC(F)F)c2[C@H]2C[C@@H]1c1nc3ccc(-c4cnc5c(c4)COC[C@@]5(O)CC)cc3n12` (single isomer, unassigned) [Example 40]: the pIC50 is 4.52 to 5.00.
The value for `[2H]C([2H])([2H])N1C(=O)c2cccc(OC(F)F)c2[C@H]2C[C@@H]1c1nc3ccc(-c4cnc5c(c4)COC[C@]5(O)CC)cc3n12` (single isomer, unassigned) [Example 41] was 4.52 to 5.00.
As for `[2H]C([2H])([2H])N1C(=O)c2cccc(OC(F)F)c2[C@H]2C[C@@H]1c1nc3ccc(-c4cnc5c(c4)NC(=O)[C@]5(C)O)cc3n12` (single isomer, unassigned) [Example 42], the figure is greater than 7.00; as for `[2H]C([2H])([2H])N1C(=O)c2cccc(OC(F)F)c2[C@H]2C[C@@H]1c1nc3ccc(-c4cnc5c(c4)NC(=O)[C@@]5(C)O)cc3n12` (single isomer, unassigned) [Example 43], greater than 7.00.
As for `[2H]C([2H])([2H])N1C(=O)c2cccc(OC(F)F)c2[C@H]2C[C@@H]1c1nc3ccc(-c4cnc5c(c4)OC[C@]5(C)O)cc3n12` (single isomer, unassigned) [Example 46], the figure is greater than 7.00.
`[2H]C([2H])([2H])N1C(=O)c2cccc(OC(F)F)c2[C@H]2C[C@@H]1c1nc3ccc(-c4cnc5c(c4)OC[C@@]5(C)O)cc3n12` (single isomer, unassigned) [Example 47] gave a pIC50 greater than 7.00.
As for `[2H]C([2H])([2H])N1C(=O)c2cccc(OC(F)F)c2[C@H]2C[C@@H]1c1nc3ccc(-c4cnc5c(c4)CC[C@@]5(C)O)c(F)c3n12` (single isomer, unassigned) [Example 49], the figure is 6.00 to 7.00; as for `[2H]C([2H])([2H])N1C(=O)c2cccc(OC(F)F)c2[C@H]2C[C@@H]1c1nc3ccc(-c4cnc5c(c4)CC[C@]5(C)O)c(F)c3n12` (single isomer, unassigned) [Example 50], greater than 7.00; as for `[2H]C([2H])([2H])N1C(=O)c2cccc(OC(F)F)c2[C@H]2C[C@@H]1c1nc3ccc(-c4cnc5c(c4)OCC[C@@]5(C)O)c(F)c3n12` (single isomer, unassigned) [Example 51], greater than 7.00.
The value for `[2H]C([2H])([2H])N1C(=O)c2cccc(OC(F)F)c2[C@H]2C[C@@H]1c1nc3ccc(-c4cnc5c(c4)OCC[C@]5(C)O)c(F)c3n12` (single isomer, unassigned) [Example 52] was greater than 7.00.
As for `[2H]C([2H])([2H])N1C(=O)c2cccc(OC(F)F)c2[C@H]2C[C@@H]1c1nc3ccc(-c4cnc5c(c4)OC[C@@]5(C)O)c(F)c3n12` (single isomer, unassigned) [Example 53], the figure is greater than 7.00.
On to `[2H]C([2H])([2H])N1C(=O)c2cccc(OC(F)F)c2[C@H]2C[C@@H]1c1nc3ccc(-c4cnc5c(c4)OC[C@]5(C)O)c(F)c3n12` (single isomer, unassigned) [Example 54], for which the pIC50 is greater than 7.00.
The value for `[2H]C([2H])([2H])N1C(=O)c2cccc(OC(F)F)c2[C@H]2C[C@@H]1c1nc3ccc(-c4cnc5c(c4)OC[C@]5(C)N)cc3n12` (single isomer, unassigned) [Example 55] was greater than 7.00; that for `[2H]C([2H])([2H])N1C(=O)c2cccc(OC(F)F)c2[C@H]2C[C@@H]1c1nc3ccc(-c4cnc5c(c4)OC[C@@]5(C)N)cc3n12` (single isomer, unassigned) [Example 56] was greater than 7.00.
Turning to `CN1C(=O)c2cccc(OC(F)F)c2[C@H]2C[C@@H]1c1nc3ccc(-c4cnc5c(c4)OC[C@]5(C)N)cc3n12` (single isomer, unassigned) [Example 57], the pIC50 is greater than 7.00.
`CN1C(=O)c2cccc(OC(F)F)c2[C@H]2C[C@@H]1c1nc3ccc(-c4cnc5c(c4)OC[C@@]5(C)N)cc3n12` (single isomer, unassigned) [Example 58] showed a pIC50 greater than 7.00.
Regarding `[2H]C([2H])([2H])N1C(=O)c2cccc(OC(F)F)c2[C@H]2C[C@@H]1c1nc3ccc(-c4cnc5c(c4)OC[C@@]5(C)N)nc3n12` (single isomer, unassigned) [Example 59], the pIC50 is 4.52 to 5.00.
The value for `[2H]C([2H])([2H])N1C(=O)c2cccc(OC(F)F)c2[C@H]2C[C@@H]1c1nc3ccc(-c4cnc5c(c4)OC[C@]5(C)N)nc3n12` (single isomer, unassigned) [Example 60] was 6.00 to 7.00; that for `[2H]C([2H])([2H])N1C(=O)c2cccc(OC(F)F)c2[C@H]2C[C@@H]1c1nc3cc(F)c(-c4cnc5c(c4)OC[C@@]5(C)N)cc3n12` (single isomer, unassigned) [Example 61] was greater than 7.00; that for `[2H]C([2H])([2H])N1C(=O)c2cccc(OC(F)F)c2[C@H]2C[C@@H]1c1nc3cc(F)c(-c4cnc5c(c4)OC[C@]5(C)N)cc3n12` (single isomer, unassigned) [Example 62] was greater than 7.00.
The value for `[2H]C([2H])([2H])N1C(=O)c2cccc(OC(F)F)c2[C@H]2C[C@@H]1c1nc3ccc(-c4cnc5c(c4)OC[C@@]5(C)O)nc3n12` (single isomer, unassigned) [Example 63] was 6.00 to 7.00.
As for `[2H]C([2H])([2H])N1C(=O)c2cccc(OC(F)F)c2[C@H]2C[C@@H]1c1nc3ccc(-c4cnc5c(c4)OC[C@]5(C)O)nc3n12` (single isomer, unassigned) [Example 64], the figure is 6.00 to 7.00.
Take `[2H]C([2H])([2H])N1C(=O)c2cccc(OC(F)F)c2[C@H]2C[C@@H]1c1nc3ccc(-c4cnc5c(c4)OC[C@@]5(C)N)c(F)c3n12` (single isomer, unassigned) [Example 65]: the pIC50 was greater than 7.00.
As for `[2H]C([2H])([2H])N1C(=O)c2cccc(OC(F)F)c2[C@H]2C[C@@H]1c1nc3ccc(-c4cnc5c(c4)OC[C@]5(C)N)c(F)c3n12` (single isomer, unassigned) [Example 66], the figure is greater than 7.00.
As for `[2H]C([2H])([2H])N1C(=O)c2cccc(OC(F)F)c2[C@H]2C[C@@H]1c1nc3ccc(-c4cnc5c(c4)CC[C@@]5(C)O)nc3n12` (single isomer, unassigned) [Example 67], the pIC50 was 4.52 to 5.00.
As for `[2H]C([2H])([2H])N1C(=O)c2cccc(OC(F)F)c2[C@H]2C[C@@H]1c1nc3ccc(-c4cnc5c(c4)CC[C@]5(C)O)nc3n12` (single isomer, unassigned) [Example 68], the figure is 4.52 to 5.00; as for `[2H]C([2H])([2H])N1C(=O)c2cccc(OC(F)F)c2[C@H]2C[C@@H]1c1nc3ccc(-c4cnc5c(c4)OCC[C@@]5(C)O)nc3n12` (single isomer, unassigned) [Example 69], 4.52 to 5.00.
The value for `[2H]C([2H])([2H])N1C(=O)c2cccc(OC(F)F)c2[C@H]2C[C@@H]1c1nc3ccc(-c4cnc5c(c4)OCC[C@]5(C)O)nc3n12` (single isomer, unassigned) [Example 70] was 6.00 to 7.00.

The term pIC50 denotes the negative decadic logarithm of the IC50, by convention in mol/L. Higher therefore signals a small IC50.
